Experiment: In vitro cytotoxicity in BALB/c3T3 mouse embryo fibroblasts.
Settings: BALB/c3T3, read-out: LC50

Work on `O=P1(N(CCCl)CCCl)NCCCO1` (stereo unspecified) [CYCLOPHOSPHAMIDE ANHYDROUS] yielded a CC50 of 37.6 µM.

From ChEMBL document CHEMBL1125916 (1991)
